How the values were obtained:
[1] = target: T1, PEP carboxylase of Corynebacterium glutamicum strain ATCC 13032 (wild-type) (Corynebacterium glutamicum, UniProt P12880); assay: PEP carboxylase activity in crude extract, wild-type strain; assay type: biochemical; conditions: crude extract of ATCC 13032, relative to Complete = 100%, change in absorbance at 340 nm/min
T1 construct: endogenous in cells; host or cells: Corynebacterium glutamicum ATCC 13032, crude extract
Description: (§1) It is possible for the measurement of the enzyme activity to use a spectrometric method (Yoshinage, T., et al., J. Biochem. 68:747-750 (1970)) and the like. For example, when the enzyme assay is measured in a continuous or kinetic mode while the reaction is occurring, the reaction can be measured spectrophotometrically by following the decrease in the absorbance (usually at 340 nanometers).
(§2) Activity units were measured spectrophotometrically as the change in absorbance (340 nm/min) using crude extracts.

[2] = test system: PEP carboxylase of Corynebacterium glutamicum strain BF100 (lysine-producing); assay: PEP carboxylase activity in crude extract, lysine-producing strain; assay type: biochemical; conditions: relative to Complete = 100%, change in absorbance at 340 nm/min
Description: as §1, §2

[3] = target: T2, PEP carboxylase from a strain of Medicago sativa (Medicago sativa, UniProt Q02735); conditions: Vance et al., Plant Physiol. 75:261-264 (1984); cited from earlier work
T2 sequence (Q02735 1-966): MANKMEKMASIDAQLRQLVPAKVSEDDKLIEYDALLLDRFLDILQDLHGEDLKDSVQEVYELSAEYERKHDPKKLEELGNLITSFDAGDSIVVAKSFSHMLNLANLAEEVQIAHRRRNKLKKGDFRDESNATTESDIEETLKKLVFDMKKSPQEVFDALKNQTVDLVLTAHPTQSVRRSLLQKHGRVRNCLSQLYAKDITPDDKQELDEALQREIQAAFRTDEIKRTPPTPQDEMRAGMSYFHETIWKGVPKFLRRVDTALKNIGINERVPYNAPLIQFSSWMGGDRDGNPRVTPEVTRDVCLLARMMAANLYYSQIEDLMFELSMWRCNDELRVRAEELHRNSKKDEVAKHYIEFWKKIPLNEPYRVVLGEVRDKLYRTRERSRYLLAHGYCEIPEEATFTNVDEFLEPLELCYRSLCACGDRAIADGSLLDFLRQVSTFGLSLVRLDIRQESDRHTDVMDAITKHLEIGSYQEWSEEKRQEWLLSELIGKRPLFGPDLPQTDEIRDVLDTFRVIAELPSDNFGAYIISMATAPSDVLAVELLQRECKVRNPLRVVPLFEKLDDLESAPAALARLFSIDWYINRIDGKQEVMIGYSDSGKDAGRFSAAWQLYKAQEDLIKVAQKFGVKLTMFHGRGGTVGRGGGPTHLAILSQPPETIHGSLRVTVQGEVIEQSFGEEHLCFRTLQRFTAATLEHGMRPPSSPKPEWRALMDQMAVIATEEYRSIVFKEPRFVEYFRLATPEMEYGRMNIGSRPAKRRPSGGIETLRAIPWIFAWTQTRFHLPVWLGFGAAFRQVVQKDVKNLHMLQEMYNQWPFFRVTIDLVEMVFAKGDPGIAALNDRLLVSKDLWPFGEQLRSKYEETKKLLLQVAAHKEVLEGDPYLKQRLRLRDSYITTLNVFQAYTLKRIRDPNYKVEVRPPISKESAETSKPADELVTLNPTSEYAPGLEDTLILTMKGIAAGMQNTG

T1 sequence (P12880 whole entry): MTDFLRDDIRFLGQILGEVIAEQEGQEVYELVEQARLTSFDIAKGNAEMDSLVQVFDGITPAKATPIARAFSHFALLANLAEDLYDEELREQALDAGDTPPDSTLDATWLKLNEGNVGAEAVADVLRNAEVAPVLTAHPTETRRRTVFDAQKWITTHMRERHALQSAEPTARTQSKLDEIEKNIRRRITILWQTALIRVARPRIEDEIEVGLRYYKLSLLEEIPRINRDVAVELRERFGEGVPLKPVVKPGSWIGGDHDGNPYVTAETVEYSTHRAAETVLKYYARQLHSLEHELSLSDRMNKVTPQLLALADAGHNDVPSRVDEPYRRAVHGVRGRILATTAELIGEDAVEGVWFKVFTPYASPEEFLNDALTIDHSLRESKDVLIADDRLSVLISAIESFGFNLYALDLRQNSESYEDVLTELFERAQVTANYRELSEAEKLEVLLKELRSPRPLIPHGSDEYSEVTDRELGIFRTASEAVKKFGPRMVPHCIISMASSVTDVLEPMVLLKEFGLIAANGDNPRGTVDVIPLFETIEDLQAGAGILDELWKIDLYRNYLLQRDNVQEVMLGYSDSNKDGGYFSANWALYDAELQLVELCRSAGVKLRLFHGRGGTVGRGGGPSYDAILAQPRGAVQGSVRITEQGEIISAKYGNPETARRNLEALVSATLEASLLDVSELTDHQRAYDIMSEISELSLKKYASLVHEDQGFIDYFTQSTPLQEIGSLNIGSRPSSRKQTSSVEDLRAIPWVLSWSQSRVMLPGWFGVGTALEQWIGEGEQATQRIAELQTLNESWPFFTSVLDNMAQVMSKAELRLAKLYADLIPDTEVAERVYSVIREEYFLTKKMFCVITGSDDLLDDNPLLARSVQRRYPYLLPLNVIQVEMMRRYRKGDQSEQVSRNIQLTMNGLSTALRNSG

| Compound | PEP Carboxylase Activity +Aspartate (5 mM) ([1]; 5 mM aspartate) | PEP Carboxylase Activity +Aspartate (5 mM) ([2]; 5 mM aspartate) | inhibition of PEP carboxylase activity [3] | PEP Carboxylase Activity −Acetyl CoA ([1]; acetyl CoA omitted) | PEP Carboxylase Activity −Acetyl CoA ([2]; acetyl CoA omitted) |
| --- | --- | --- | --- | --- | --- |
| N[C@@H](CC(=O)O)C(=O)O [Aspartate, L-aspartic acid] | 100% | 17% | not substantially inhibited |  |  |
| CC(=O)SCCNC(=O)CCNC(=O)[C@H](O)C(C)(C)COP(=O)(O)OP(=O)(O)OC[C@H]1O[C@@H](n2cnc3c(N)ncnc32)[C@H](O)[C@@H]1OP(=O)(O)O [Acetyl CoA, acetyl coenzyme A] |  |  |  | 56% | 15% |
